Measured values reported in patent US10913710B2, “Benzene disulfonamide for the treatment of cancer” (priority 2017, dated 2021).

Target: PDEδ (Homo sapiens (Human), UniProt O43924)
Assay: Fluorescence polarization competition binding assay: displacement titration of labeled Atorvastatin probe for KD
Settings: fluorescence polarization assay; activity classes; read-out: KD
Procedure: Example D.2: Displacement Titrations of Labeled Atorvastatin-Probe for the Determination of KD Values
Displacement Titrations of Labeled Atorvastatin-Probe for the Determination of KD Values:
The purification was followed by size exclusion gel filtration on a Superdex 75 S26/60 column using buffer A (25 mM Tris-HCl, pH 7.5, 150 mM NaCl and 3 mM DTE).

SMILES	Kd
O=CC1Cc2ccccc2N1S(=O)(=O)c1ccc(S(=O)(=O)N(Cc2ccc(Cl)cc2)C2CCCC2)cc1 (stereo not shown) [Compound 38]	100 to 1000 nM
CCOC(=O)c1ccccc1CN(CC1CCOCC1)S(=O)(=O)c1ccc(S(=O)(=O)N(Cc2ccc(Cl)cc2)C2CCCC2)cc1 [Compound 40, ethyl 2-(((4-(N-(4-chlorobenzyl)-N-cyclopentylsulfamoyl)-N-((tetrahydro-2H-pyran-4-yl)methyl)phenyl)sulfonamido)methyl)benzoate]	100 to 1000 nM
Cc1ccsc1N(Cc1ccccn1)S(=O)(=O)c1ccc(S(=O)(=O)N(Cc2ccccn2)c2sccc2C)cc1 [Compound 41]	> 1000 nM
Cc1ccc(CN(C2CCCC2)S(=O)(=O)c2ccc(S(=O)(=O)N(Cc3ccccn3)c3sccc3C)cc2)cc1 [Compound 42]	100 to 1000 nM
Cc1ccc(CN(C2CCCC2)S(=O)(=O)c2ccc(S(=O)(=O)N(Cc3ccccn3)c3sccc3C)cc2)cc1Cl [Compound 43]	100 to 1000 nM
CCN(CC)S(=O)(=O)c1ccc(S(=O)(=O)N(Cc2ccccn2)Cc2ccco2)cc1 [Compound 46, N1,N1-diethyl-N4-(furan-2-ylmethyl)-N4-(pyridin-2-ylmethyl)benzene-1,4-disulfonamide]	100 to 1000 nM
COc1cccc(CN(C2CC2)S(=O)(=O)c2ccc(S(=O)(=O)NCc3ccccc3)cc2)c1OC [Compound 51, N1-benzyl-N4-cyclopropyl-N4-(2,3-dimethoxybenzyl)benzene-1,4-disulfonamide]	100 to 1000 nM
O=S(=O)(c1ccc(S(=O)(=O)N(Cc2ccc(Cl)cc2)Cc2ccco2)cc1)N1CCCCCC1 [Compound 52, 4-(azepan-1-ylsulfonyl)-N-(4-chlorobenzyl)-N-(furan-2-ylmethyl)benzenesulfonamide]	100 to 1000 nM
O=S(=O)(NC1CCCC1)c1ccc(S(=O)(=O)N(Cc2ccc(F)cc2)Cc2ccccc2F)cc1 [Compound 53, N1-cyclopentyl-N4-(2-fluorobenzyl)-N4-(4-fluorobenzyl)benzene-1,4-disulfonamide]	100 to 1000 nM
O=S(=O)(NC1CCCCC1)c1ccc(S(=O)(=O)N(Cc2ccccc2)Cc2ccco2)cc1 [Compound 54, N1-benzyl-N4-cyclohexyl-N1-(furan-2-ylmethyl)benzene-1,4-disulfonamide]	100 to 1000 nM
COc1ccc(CN(C2CCCCC2C)S(=O)(=O)c2ccc(S(=O)(=O)N(C)C3CCCCC3)cc2)cc1OC (stereo not shown) [Compound 57, N1-cyclohexyl-N4-(3,4-dimethoxybenzyl)-N1-methyl-N4-(2-methylcyclohexyl)benzene-1,4-disulfonamide]	100 to 1000 nM
CC1CCCN(S(=O)(=O)c2ccc(S(=O)(=O)N(Cc3ccccc3F)C3CCCC3)cc2)C1 (stereo not shown) [Compound 58, N-cyclopentyl-N-(2-fluorobenzyl)-4-((3-methylpiperidin-1-yl)sulfonyl)benzenesulfonamide]	30 to 100 nM
CC(C)c1ccc(CN(Cc2ccco2)S(=O)(=O)c2ccc(S(=O)(=O)N(C)Cc3ccccc3)cc2)cc1 [Compound 59, N1-benzyl-N4-(furan-2-ylmethyl)-N4-(4-isopropylbenzyl)-N1-methylbenzene-1,4-disulfonamide]	100 to 1000 nM
COc1cc(CN(C2CCCCC2C)S(=O)(=O)c2ccc(S(=O)(=O)NC3CCCC3)cc2)cc(OC)c1OC (stereo not shown) [Compound 60, N1-cyclopentyl-N4-(2-methylcyclohexyl)-N4-(3,4,5-trimethoxybenzyl)benzene-1,4-disulfonamide]	100 to 1000 nM
O=S(=O)(NCC1CCCO1)c1ccc(S(=O)(=O)N(Cc2ccccc2)Cc2ccc(Cl)cc2)cc1 (stereo not shown) [Compound 62, N1-benzyl-N1-(4-chlorobenzyl)-N4-((tetrahydrofuran-2-yl)methyl)benzene-1,4-disulfonamide]	100 to 1000 nM

Second part, the molecule after the results:

Kd	SMILES
30 to 100 nM	O=S(=O)(c1ccc(S(=O)(=O)N(Cc2ccc(Cl)cc2)C2CCCC2)cc1)N(Cc1cccc(Br)c1)CC1CCCCC1 [Compound 35, N1-(3-bromobenzyl)-N4-(4-chlorobenzyl)-N1-(cyclohexylmethyl)-N4-cyclopentylbenzene-1,4-disulfonamide]
30 to 100 nM	O=S(=O)(c1ccc(S(=O)(=O)N(Cc2ccc(Cl)cc2)C2CCCC2)cc1)N(CC1CCCCC1)c1ccccc1Br [Compound 36, N1-(2-bromophenyl)-N4-(4-chlorobenzyl)-N1-(cyclohexylmethyl)-N4-cyclopentylbenzene-1,4-disulfonamide]
30 to 100 nM	O=S(=O)(c1ccc(S(=O)(=O)N(Cc2ccc(Cl)cc2)C2CCCC2)cc1)N(CC1CCCCC1)c1cc(C(F)(F)F)ccc1Br [Compound 37, N1-(2-bromo-5-(trifluoromethyl)phenyl)-N4-(4-chlorobenzyl)-N1-(cyclohexylmethyl)-N4-cyclopentylbenzene-1,4-disulfonamide]
30 to 100 nM	O=S(=O)(NCC1CCOCC1)c1ccc(S(=O)(=O)N(Cc2ccc(Cl)cc2)C2CCCC2)cc1 [Compound 39]
1 to 30 nM	O=S(=O)(NCC1CCNCC1)c1ccc(S(=O)(=O)N(Cc2ccc(Cl)cc2)C2CCCC2)cc1 [Compound 45, N1-(4-chlorobenzyl)-N1-cyclopentyl-N4-(piperidin-4-ylmethyl)benzene-1,4-disulfonamide]
30 to 100 nM	CCN(Cc1ccccc1)S(=O)(=O)c1ccc(S(=O)(=O)N(Cc2ccc(F)cc2)Cc2ccco2)cc1 [Compound 47, N1-benzyl-N1-ethyl-N4-(4-fluorobenzyl)-N4-(furan-2-ylmethyl)benzene-1,4-disulfonamide]
1 to 30 nM	CCN(Cc1ccccc1)S(=O)(=O)c1ccc(S(=O)(=O)N(Cc2ccccc2)Cc2ccccn2)cc1 [Compound 48, N1,N4-dibenzyl-N1-ethyl-N4-(pyridin-2-ylmethyl)benzene-1,4-disulfonamide]
1 to 30 nM	CCN(Cc1ccccc1)S(=O)(=O)c1ccc(S(=O)(=O)N(Cc2ccccc2)Cc2ccccc2F)cc1 [Compound 49, N1,N4-dibenzyl-N1-ethyl-N4-(2-fluorobenzyl)benzene-1,4-disulfonamide]
30 to 100 nM	CC1CCCN(S(=O)(=O)c2ccc(S(=O)(=O)N(Cc3ccccc3Cl)CC3CCCO3)cc2)C1 (stereo not shown) [Compound 50, N-(2-chlorobenzyl)-4-((3-methylpiperidin-1-yl)sulfonyl)-N-((tetrahydrofuran-2-yl)methyl)benzenesulfonamide]
1 to 30 nM	CCN(Cc1ccccc1)S(=O)(=O)c1ccc(S(=O)(=O)N(Cc2ccccc2F)CC2CCCO2)cc1 (stereo not shown) [Compound 55, N1-benzyl-N1-ethyl-N4-(2-fluorobenzyl)-N4-((tetrahydrofuran-2-yl)methyl)benzene-1,4-disulfonamide]
1 to 30 nM	CC(C)c1ccc(CN(CC2CCCO2)S(=O)(=O)c2ccc(S(=O)(=O)N(C)C3CCCCC3)cc2)cc1 (stereo not shown) [Compound 56, N1-cyclohexyl-N4-(4-isopropylbenzyl)-N1-methyl-N4-((tetrahydrofuran-2-yl)methyl)benzene-1,4-disulfonamide]
1 to 30 nM	CN(Cc1ccccc1)S(=O)(=O)c1ccc(S(=O)(=O)N(Cc2ccc(F)cc2)C2CCCCC2)cc1 [Compound 61, N1-benzyl-N4-cyclohexyl-N4-(4-fluorobenzyl)-N1-methylbenzene-1,4-disulfonamide]
1 to 30 nM	CC(C)c1ccc(CN(CC2CCCO2)S(=O)(=O)c2ccc(S(=O)(=O)NCc3ccccc3)cc2)cc1 (stereo not shown) [Compound 63, N1-benzyl-N4-(4-isopropylbenzyl)-N4-((tetrahydrofuran-2-yl)methyl)benzene-1,4-disulfonamide]
